Reference: patent US4039535A, “7-[α-(GUANYL-1-UREIDO)PHENYLACETAMIDO]-3-SUBSTITUTED CEPHALOSPORIN ANTIBIOTICS” (Eli Lilly and Company, priority 1976, dated 1977)
In brackets after ≈: the same amount, converted by molar mass. Like-named read-outs stand apart in the source and are kept apart here.

Assays:
Format in all cases: cell-based
Serratia marcescens = assay: MIC by Gradient Plate Method, in vitro antibiotic activity vs gram-negative microorganisms (Table I); details: read-out: Minimum Inhibitory Conc.
Protocol: (§1) In the tables the minimum inhibitory concentrations (MIC) of the listed compound verses the indicated gram-positive and gram-negative microorganisms is presented.
(§2) The MIC values were determined by the Gradient Plate Method which is essentially the method described by Bryson and Szybalski, Science, 116, 45-46 (1952).

Aerobacter aerogenes = assay: as above; details: Klebsiella aerogenes, read-out: Minimum Inhibitory Conc.
Protocol: as §1, §2

Shigella sp. = assay: as above; details: read-out: Minimum Inhibitory Conc.
Protocol: as §1, §2

Escherichia coli = assay: as above; details: read-out: Minimum Inhibitory Conc.
Protocol: as §1, §2

Salmonella heidelberg = assay: as above; details: Salmonella enterica, read-out: Minimum Inhibitory Conc.
Protocol: as §1, §2

Klebsiella pneumoniae = assay: as above; details: read-out: Minimum Inhibitory Conc.
Protocol: as §1, §2

Pseudomonas aeruginosa = assay: as above; details: read-out: Minimum Inhibitory Conc.
Protocol: as §1, §2

[1] = tested on: gram-negative microorganisms; assay: Antibiotic activity against gram-negative microorganisms, summary of Table I; details: in words; MIC values in Table I; vs compound E
Protocol: as §1, §2

[2] = tested on: penicillin resistant staphylococcus X1.1; assay: MIC by Gradient Plate Method vs penicillin resistant staphylococcus clinical isolates (Table II); details: read-out: Minimum Inhibitory Concentration
Protocol: as §1, §2

[3] = tested on: penicillin resistant staphylococcus V32; assay: as above; details: read-out: Minimum Inhibitory Concentration
Protocol: as §1, §2

[4] = tested on: penicillin resistant staphylococcus V84; assay: as above; details: read-out: Minimum Inhibitory Concentration
Protocol: as §1, §2

[5] = tested on: penicillin resistant staphylococcus V41; assay: as above; details: read-out: Minimum Inhibitory Concentration
Protocol: as §1, §2

SMILES	MIC (Serratia marcescens) [µg/mL]	MIC (Aerobacter aerogenes) [µg/mL]	MIC (Shigella sp.) [µg/mL]	MIC (Escherichia coli) [µg/mL]	MIC (Salmonella heidelberg) [µg/mL]	MIC (Klebsiella pneumoniae) [µg/mL]	MIC (Pseudomonas aeruginosa) [µg/mL]	activity against gram-negative microorganisms compared with known compound E [1]	MIC ([2]; N.S. = in the absence of serum) [µg/mL]	MIC ([2]; S = in the presence of serum) [µg/mL]	MIC ([3]; N.S. = in the absence of serum) [µg/mL]	MIC ([3]; S = in the presence of serum) [µg/mL]	MIC ([4]; N.S. = in the absence of serum) [µg/mL]	MIC ([4]; S = in the presence of serum) [µg/mL]	MIC ([5]; N.S. = in the absence of serum) [µg/mL]	MIC ([5]; S = in the presence of serum) [µg/mL]
Cn1nnnc1SCC1=C(C(=O)O)N2C(=O)C(NC(=O)[C@H](NC(=O)NC(=N)N)c3ccccc3)C2SC1 (stereo partly drawn) [A, 7-[D-α-(3-Guanyl-1-ureido)phenylacetamido]-3-(1-methyl-1H-tetrazol-5yl-thiomethyl)-3-cephem-4-carboxylic acid]	7 (≈ 12.8 µM)	0.7 (≈ 1.28 µM)	2 (≈ 3.66 µM)	2 (≈ 3.66 µM)	0.8 (≈ 1.46 µM)	1 (≈ 1.83 µM)	53.5 (≈ 97.9 µM)	significantly greater activity against gram-negative microorganisms than the known compound, E	0.5 (≈ 0.915 µM)	< 0.1	1 (≈ 1.83 µM)	9	0.6 (≈ 1.1 µM)	1	0.7 (≈ 1.28 µM)	1
Cc1nnc(SCC2=C(C(=O)O)N3C(=O)C(NC(=O)[C@H](NC(=O)NC(=N)N)c4ccccc4)C3SC2)s1 (stereo partly drawn) [B, 7-[d-α-(3-guanyl-1-ureido)phenylacetamido]-3-(5-methyl-1,3,4-thiadiazol-2-yl-thiomethyl)-3-cephem-4-carboxylid acid]	14.3 (≈ 25.4 µM)	1 (≈ 1.78 µM)	5.5 (≈ 9.78 µM)	8.7 (≈ 15.5 µM)	6 (≈ 10.7 µM)	1 (≈ 1.78 µM)	104 (≈ 185 µM)	significantly greater activity against gram-negative microorganisms than the known compound, E	0.6 (≈ 1.07 µM)	10	1 (≈ 1.78 µM)	> 20	0.6 (≈ 1.07 µM)	10	1 (≈ 1.78 µM)	> 20
Cn1nnnc1SCC1=C(C(=O)O)N2C(=O)C(NC(=O)[C@H](NC(=O)NC(=N)N)c3ccc(O)cc3)C2SC1 (stereo partly drawn) [C, 7-[d-α-(3-guanyl-1-ureido)-4-hydroxyphenylacetamido]-3-(1-methyl-1H-tetrazol-5-yl-thiomethyl)-3-cephem-4-carboxylic acid]	21 (≈ 37.3 µM)	0.1 (≈ 0.178 µM)	0.7 (≈ 1.24 µM)	0.7 (≈ 1.24 µM)	0.2 (≈ 0.355 µM)	1.2 (≈ 2.13 µM)	23 (≈ 40.9 µM)	significantly greater activity against gram-negative microorganisms than the known compound, E	< 0.1	0.6	1 (≈ 1.78 µM)	10	< 0.1	1	< 0.1	10
Cc1nnc(SCC2=C(C(=O)O)N3C(=O)C(NC(=O)[C@H](NC(=O)NC(=N)N)c4ccc(O)cc4)C3SC2)s1 (stereo partly drawn) [D, 7-[d-α-(3-guanyl-1-ureido)-4-hydroxyphenylacetamido]-3-(5-methyl-1,3,4-thiadiazol-2-yl-thiomethyl)-3-cephem-4-carboxylic acid]	50 (≈ 86.4 µM)	1 (≈ 1.73 µM)	4.5 (≈ 7.78 µM)	6 (≈ 10.4 µM)	1 (≈ 1.73 µM)	1 (≈ 1.73 µM)	50 (≈ 86.4 µM)	significantly greater activity against gram-negative microorganisms than the known compound, E	1 (≈ 1.73 µM)	1	1 (≈ 1.73 µM)	12	1 (≈ 1.73 µM)	2	1 (≈ 1.73 µM)	6
CC(=O)OCC1=C(C(=O)O)N2C(=O)C(NC(=O)[C@H](NC(=O)NC(=N)N)c3ccccc3)C2SC1 (stereo partly drawn) [E, 7-[d-α-(3-guanyl-1-ureido)phenylacetamido]-3-acetoxymethyl-3-cephem-4-carboxylic acid, reference compound]	31.5 (≈ 64.2 µM)	4.5 (≈ 9.17 µM)	16.3 (≈ 33.2 µM)	13.8 (≈ 28.1 µM)	6 (≈ 12.2 µM)	21.5 (≈ 43.8 µM)	100 (≈ 204 µM)	–	0.6 (≈ 1.22 µM)	1	0.7 (≈ 1.43 µM)	1	0.6 (≈ 1.22 µM)	1	0.5 (≈ 1.02 µM)	1
